Laboratory results published in US4382030A, “2-Acylaminomethyl-1,4-benzodiazepine derivatives and their salts, pharmaceutical compositions thereof and process for their preparation” (Kali-Chemie Pharma GmbH, priority 1979, dated 1983).

Key:
Assay type in all cases: in vivo
male mice = experiment: Determination of the Minimal Toxic Dose (oral, mice); details: mouse, p.o.; observed 3 h, symptoms and deaths over 24 h
Experimental: 1. Determination of the Minimal Toxic Dose.
Maximum doses of 300 mg/kg of the test compound are administered orally to three male mice having a weight of 20-25 g and toxicity symptoms are carefully observed for a period of three hours. Furthermore, over a period of 24 hours from the administration all symptoms and deaths are registered. Side-symptoms are also observed and registered. Depending on their water solubility, the test compounds are administered either in form of aqueous solutions or in form of suspensions without the use of solvents. In order to maintain a stable suspension of the test compound, one drop of Tween-80 can be added and the mixture can be mechanically homogenized. In the case of compounds where deaths or toxic symptoms have been observed, additional mice are treated with decreasing doses until a dose is reached at which no toxic symptoms occur. The lowest dose which causes toxic symptoms is considered the minimal toxic dose.

[1] = tested on: mice (tail flick, heat beam pain reaction); experiment: Tail flick Test in Mice; details: sc, 0.5 h; mouse, s.c.; 30 minutes after administration; >75% increase of reaction time in 50% of animals
Experimental: (§1) This analgesic activity has been evaluated in two pharmacological standard methods, the tail flick test in mice and the arthritis pain test in rats.
3. Tail flick Test in Mice.
This test is carried out according to the method described by D'Amour and Smith (1941), yet fed male and female mice having a body weight of 16 to 25 g are used instead of rats. Thirty minutes prior to treatment with the test compound, each mouse is placed separately in a cylindrical container in such a manner that it cannot turn itself or move forward. Its tail is positioned in a narrow groove projecting out of the container. A certain point of the tail of each animal (about 35 mm beyond the root of the tail) is subjected to the heat beam of a lamp of known strength and temperature which is positioned directly under the tail. The number of seconds which pass before the mouse moves its tail out of the light beam is determined twice, once 30 minutes and once 15 minutes prior to subcutaneous administration of the test compound (10 mg/kg). Mice which show a reaction time differing more than 25% are eliminated from the test. The reaction time is again determined 15 minutes and 30 minutes after the treatment and an increase of the reaction period of more than 75% of the average values prior to treatment in the same animal is considered as showing an analgesic effect. The ED50 (95% reliability) of each test compound 30 minutes after administration is evaluated according to the method of Litchfield and Wilcoxon (1949). The dose which increases the reaction time as compared to the reaction time prior to treatment for more than 75% in 50% of the animals is considered as ED50.

[2] = tested on: rats (secondary arthritis pain, mycobacterium smegmae); experiment: Arthritis Pain Test in Rats; details: po, rat, p.o., 3 hours after administration, protection in 50% of treated animals
Experimental: as §1
2. Arthritis Pain Test in Rats.
Male rats having a weight of from 160 to 180 g are anesthetized by small i.p. injection of 20 mg/kg of sodium pentobarbital and 0.1 ml of a suspension of mycobacterium smegmae (SI 043) in liquid paraffin (0.6 mg mycobacterium/0.1 ml of oil) are injected intracutaneously into the left rear paw. Fourteen days later when a marked secondary arthritis has developed in particular in the right rear paw, the effect of the test compound is evaluated. A control-reading is taken 30 minutes prior to administration of the test compound by bending the foot joint of the right rear paw three times and counting the number of squeakings. […] Three hours after oral administration of the test compound the bending of the joint is repeated. Animals which squeak only once or not at all are considered to be protected against pain. Between about 9 and 20 rats are used per dose and the ED50 (95% reliability) is determined according to the method of Litchfield and Wilcoxon (1949). The dose which provides protection in 50% of the treated animals is taken as ED50.

Question: With COc1ccc2c(c1)N(C)C(CNC(=O)c1ccco1)CN=C2c1ccccc1 (stereo not drawn) [Compound 4, 8-methoxy-1-methyl-2-[(furane-2-carbonyl)-aminomethyl]-5-phenyl-1H-2,3-dihydro-1,4-benzodiazepine] as the molecule, how does the “MDL (minimal toxic dose)” value (male mice) read?
Answer: The value was over 200 mg/kg.

Question: And the ED50 [1]?
Answer: Its ED50 is 7 mg/kg.

Question: And the ED50 [2]?
Answer: Its ED50 is 21 mg/kg.

Question: Which “MDL (minimal toxic dose)” value (male mice) does the source give for COc1cccc(C2=NCC(CNC(=O)c3ccco3)N(C)c3ccccc32)c1 (stereo not drawn) [Compound 14, 1-methyl-2-[(furane-2-carbonyl)-aminomethyl]-5-(3-methoxyphenyl)-1H-2,3-dihydro-1,4-benzodiazepine] here?
Answer: Its value is over 300 mg/kg.

Question: What about the ED50 [1] of the same molecule?
Answer: Its ED50 is 1.6 mg/kg.

Question: What about the ED50 [2] of the same molecule?
Answer: Its ED50 is 32 mg/kg.

Question: How did the “MDL (minimal toxic dose)” value (male mice) turn out when CCOc1ccc2c(c1)N(C)C(CNC(=O)c1ccoc1)CN=C2c1ccccc1 (stereo not drawn) [Compound 13, 8-ethoxy-1-methyl-2-[(furane-3-carbonyl)-aminomethyl]-5-phenyl-1H-2,3-dihydro-1,4-benzodiazepine] was run?
Answer: Its value is over 200 mg/kg.

Question: And the ED50 [1]?
Answer: Its ED50 is 6 mg/kg.

Question: And the ED50 [2]?
Answer: Its ED50 is 15 mg/kg.

Question: Which results are given for CCN1c2ccccc2C(c2ccccc2)=NCC1CNC(=O)c1ccoc1 (stereo not drawn) [Compound 17, 1-ethyl-2-[(furane-3-carbonyl)-aminomethyl]-5-phenyl-1H-2,3-dihydro-1,4-benzodiazepine]?
Answer: MDL (minimal toxic dose) (male mice): > 200 mg/kg; ED50 [1]: 2.6 mg/kg; ED50 [2]: 22 mg/kg

Question: CN1c2ccccc2C(c2ccccc2F)=NCC1CNC(=O)c1cccs1 (stereo not drawn) [Compound 21, 1-methyl-2-[(thiophene-2-carbonyl)-aminomethyl]-5-(2-fluorophenyl)-1H-2,3-dihydro-1,4-benzodiazepine] was tested. Which “MDL (minimal toxic dose)” value (male mice) did it give?
Answer: The value was over 300 mg/kg.

Question: What about the ED50 [1] of the same molecule?
Answer: Its ED50 is 6.2 mg/kg.

Question: And the ED50 [2]?
Answer: Its ED50 is 13 mg/kg.

Question: With CN1c2ccccc2C(c2ccccc2F)=NCC1CNC(=O)c1ccco1 (stereo not drawn) [Compound 18, 1-methyl-2-[(furane-2-carbonyl)-aminomethyl]-5-(2-fluorophenyl)-1H-2,3-dihydro-1,4-benzodiazepine] as the molecule, how does the “MDL (minimal toxic dose)” value (male mice) read?
Answer: The value was over 300 mg/kg.

Question: What about the ED50 [1] of the same molecule?
Answer: The ED50 was 4.1 mg/kg.

Question: And the ED50 [2]?
Answer: The ED50 was 18 mg/kg.

Question: What does the source list for CN1c2ccccc2C(c2ccccc2)=NCC1CNC(=O)c1cccs1 (stereo not drawn) [Compound 1, 1-methyl-2-[(thiophene-2-carbonyl)-aminomethyl]-5-phenyl-1H-2,3-dihydro-1,4-benzodiazepine]?
Answer: MDL (minimal toxic dose) (male mice): > 300 mg/kg; ED50 [1]: 2.8 mg/kg; ED50 [2]: 13 mg/kg

Question: What does the source list for CN1c2ccccc2C(c2ccccc2F)=NCC1CNC(=O)c1ccoc1 (stereo not drawn) [Compound 19, 1-methyl-2-[(furane-3-carbonyl)-aminomethyl]-5-(2-fluorophenyl)-1H-2,3-dihydro-1,4-benzodiazepine]?
Answer: MDL (minimal toxic dose) (male mice): > 300 mg/kg; ED50 [1]: 0.56 mg/kg; ED50 [2]: 13 mg/kg

Question: With Cc1ccc2c(c1)C(c1ccccc1)=NCC(CNC(=O)c1ccsc1)N2C (stereo not drawn) [Compound 10, 1,7-dimethyl-2-[(thiophene-3-carbonyl)-aminomethyl]-5-phenyl-1H-2,3-dihydro-1,4-benzodiazepine] as the molecule, how does the “MDL (minimal toxic dose)” value (male mice) read?
Answer: The value was over 300 mg/kg.

Question: What about the ED50 [1] of the same molecule?
Answer: The ED50 was 3.2 mg/kg.

Question: And the ED50 [2]?
Answer: Its ED50 is 32 mg/kg.
